Tests used:
FAAH [1] = target: T1, FAAH (Homo sapiens, UniProt O00519); conditions: cited from earlier work
T1 sequence (O00519 1-579): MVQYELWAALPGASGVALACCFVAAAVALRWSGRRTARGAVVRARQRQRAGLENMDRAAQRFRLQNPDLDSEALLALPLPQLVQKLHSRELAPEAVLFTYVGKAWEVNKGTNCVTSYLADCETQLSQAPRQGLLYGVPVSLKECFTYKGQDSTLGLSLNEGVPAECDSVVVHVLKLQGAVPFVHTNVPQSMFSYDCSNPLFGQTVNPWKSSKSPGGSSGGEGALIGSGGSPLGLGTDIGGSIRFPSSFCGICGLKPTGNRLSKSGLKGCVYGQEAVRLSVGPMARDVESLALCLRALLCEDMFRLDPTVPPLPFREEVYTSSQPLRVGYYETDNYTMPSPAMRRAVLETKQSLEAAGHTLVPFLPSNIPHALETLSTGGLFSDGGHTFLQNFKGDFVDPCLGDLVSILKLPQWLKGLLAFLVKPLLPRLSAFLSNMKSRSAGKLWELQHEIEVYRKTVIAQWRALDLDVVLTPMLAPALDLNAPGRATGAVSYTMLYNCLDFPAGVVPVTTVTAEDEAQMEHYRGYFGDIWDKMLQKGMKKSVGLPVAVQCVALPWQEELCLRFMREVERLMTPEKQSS

[2] = rat; cited from earlier work
[3] = rats; cited from earlier work
[4] = rat; cited from earlier work; remark: listed apart in the source
[5] = rats; cited from earlier work; remark: listed apart in the source
[6] = target: T2, purified recombinant rat FAAH (Rattus norvegicus, UniProt P97612); assay: FAAH enzyme assay, Ki (Dixon plot), rat FAAH; assay type: biochemical; conditions: purified recombinant rat FAAH expressed in E. coli; 14C-oleamide hydrolysis; pH 9.0; 20-23° C.
T2 construct: made in house; host or cells: E. coli
T2 sequence (P97612 1-579): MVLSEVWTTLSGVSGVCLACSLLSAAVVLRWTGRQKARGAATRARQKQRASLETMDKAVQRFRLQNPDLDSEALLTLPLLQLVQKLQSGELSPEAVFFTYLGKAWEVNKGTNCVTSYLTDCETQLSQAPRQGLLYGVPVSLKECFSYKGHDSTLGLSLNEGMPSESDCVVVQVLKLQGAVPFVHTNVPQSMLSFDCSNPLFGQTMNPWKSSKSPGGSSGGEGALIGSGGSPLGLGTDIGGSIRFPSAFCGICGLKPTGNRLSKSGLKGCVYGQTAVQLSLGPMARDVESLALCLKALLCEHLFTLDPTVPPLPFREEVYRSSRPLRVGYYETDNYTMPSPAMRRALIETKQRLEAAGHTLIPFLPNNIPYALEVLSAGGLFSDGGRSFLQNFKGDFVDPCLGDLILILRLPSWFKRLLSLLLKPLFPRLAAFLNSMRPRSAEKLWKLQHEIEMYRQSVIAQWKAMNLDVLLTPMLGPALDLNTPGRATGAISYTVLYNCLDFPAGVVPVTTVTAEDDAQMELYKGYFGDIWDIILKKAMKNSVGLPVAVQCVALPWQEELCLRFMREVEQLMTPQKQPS

rat FAAH = target: T3, rat FAAH (Rattus norvegicus, UniProt P97612); assay: FAAH inhibition IC50, rat; assay type: biochemical; conditions: inhibition at 3-5 test compound concentrations
T3 construct: made in house; host or cells: E. coli
T3 sequence (P97612 1-579): T2 sequence (P97612 1-579)
Method: (§1) Enzyme assays were performed at 20-23° C. with purified recombinant rat FAAH expressed in E. coli (Patricelli, M. P.; Lashuel, H. A.; et al. Biochemistry 1998, 37, 15177-15187) (unless indicated otherwise) or with solubilized COS-7 membrane extracts from cells transiently transfected with human FAAH cDNA (Giang, D. K.; Cravatt, B. F. Proc. Natl. Acad. Sci. U.S.A. 1997, 94, 2238-2242) (where specifically indicated) in a buffer of 125 mM Tris/1 mM EDTA/0.2% glycerol/0.02% Triton X-100/0.4 mM Hepes, pH 9.0 buffer (Patricelli, M. P.; Patterson, J. P.; et al. Bioorg. Med. Chem. Lett. 1998, 8, 613-618). […] NT=no data available.
(§2) IC50 values were determined from the inhibition observed at 3-5 different test compound concentrations (from three or more trials at each concentration) using the formula IC50=[I]/[K0/Ki)-1], where K0 is the control reaction rate without inhibitor and Ki is the rate with test compound at concentration [I] (Conde-Frieboes, K. et al. J. Am. Chem. Soc. 1996, 118, 5519-5525). NT=no data available.

FAAH [7] = target: T1, FAAH; assay: FAAH inhibition IC50, human; assay type: biochemical; set-up: expressed in transfected cells; host or cells: COS-7 (transient transfection), solubilized membrane extracts; conditions: inhibition at 3-5 test compound concentrations
Method: as §1, §2

FAAH [8] = target: T1, FAAH; assay: FAAH enzyme assay, Ki (Dixon plot), human FAAH; assay type: biochemical; set-up: expressed in transfected cells; host or cells: COS-7 (transient transfection), solubilized membrane extracts; conditions: solubilized COS-7 membrane extracts, human FAAH cDNA; 14C-oleamide hydrolysis; pH 9.0; 20-23° C.
[9] = rats; cited from earlier work; remark: listed apart in the source
[10] = rats; cited from earlier work; remark: listed apart in the source
[11] = CREAE mice, model of multiple sclerosis; cited from earlier work

| SMILES | Ki [6] [nM] | IC50 (rat FAAH) [nM] | IC50 (FAAH [7]) [nM] | also measured |
| --- | --- | --- | --- | --- |
| O=C(CCCCCCc1ccccc1)c1ncc(-c2ccccn2)o1 [OL-135] | – | – | – | inhibition of FAAH (FAAH [1]): potent inhibitor; analgesic activity in hot plate test [2]: analgesic activity; analgesic activity in tail emersion test [3]: analgesic activity |
| NC(=O)c1cccc(-c2cccc(OC(=O)NC3CCCCC3)c2)c1 [URB-597] | – | – | – | analgesic activity in hot plate test [2]: analgesic efficacy; analgesic efficacy in formalin test [4]: analgesic efficacy; efficacy in zero plus maze model of anxiety [5]: efficacy |
| COC(=O)c1cccc(-c2cnc(C(=O)CCc3ccc(-c4ccccc4)cc3)o2)n1 [Example 21, 6-[2-(3-Biphenyl-4-yl-propionyl)-oxazol-5-yl]-pyridine-2-carboxylic acid methyl ester] | 1.2 | 0.5 | 3 | Ki (FAAH [8]): 1.2 nM |
| O=C(CCc1ccc(OCc2ccccc2)cc1)c1ncc(-c2ccccn2)o1 [Example 11a, 1-Oxo-1-[5-(2-pyridyl)oxazol-2-yl]-3-(4-(benzyloxy)phenyl)propane] | 1.3 | – | – | Ki (FAAH [8]): 0.45 nM; melting point: 99 to 100 °C |
| O=C(O)c1cccc(-c2cnc(C(=O)CCc3ccc(COc4ccccc4)cc3)o2)n1 [Example 18, 6-{2-[3-(4-Phenoxymethyl-phenyl)-propionyl]-oxazol-5-yl}-pyridine-2-carboxylic acid] | 6.1 | 0.5 | 1 | – |
| O=C(CCc1ccc(-c2ccccc2)cc1)c1ncc(-c2cccnc2)o1 [Example 31, 3-Biphenyl-4-yl-1-(5-pyridin-3-yl-oxazol-2-yl)-propan-1-one] | 1.1 | 2 | 22 | – |
| NC(=O)c1ccc(-c2cnc(C(=O)CCc3ccc(-c4ccccc4)cc3)o2)nc1 [Example 27, 6-[2-(3-Biphenyl-4-yl-propionyl)-oxazol-5-yl]-nicotinamide] | 1.5 | 0.5 | 0.4 | – |
| O=C(O)c1cccc(-c2cnc(C(=O)CCc3ccc(-c4ccccc4)cc3)o2)n1 [Example 24, 6-[2-(3-Biphenyl-4-yl-propionyl)-oxazol-5-yl]-pyridine-2-carboxylic acid] | 22 | 0.6 | 2 | – |
| O=C(O)c1cc(-c2cnc(C(=O)CCc3ccc(-c4ccccc4)cc3)o2)ccn1 [Example 29, 4-[2-(3-Biphenyl-4-yl-propionyl)-oxazol-5-yl]-pyridine-2-carboxylic acid] | 50 | 3 | 7 | – |
| COC(=O)c1cc(-c2cnc(C(=O)CCc3ccc(-c4ccccc4)cc3)o2)ccn1 [Example 28, 4-[2-(3-Biphenyl-4-yl-propionyl)-oxazol-5-yl]-pyridine-2-carboxylic acid methyl ester] | 1.6 | 1.5 | 29 | – |
| COC(=O)c1cccc(-c2cnc(C(=O)CCc3ccc(COc4ccccc4)cc3)o2)n1 [Example 16, 6-{2-[3-(4-Phenoxymethyl-phenyl)-propionyl]-oxazol-5-yl}-pyridine-2-carboxylic acid methyl ester] | 2 | 1 | 1.2 | – |
| O=C(CCc1ccc(-c2ccccc2)cc1)c1ncc(-c2cccc(-c3nnn[nH]3)n2)o1 [Example 46, 3-Biphenyl-4-yl-1-{5-[6-(1H-tetrazol-5-yl)-pyridin-2-yl]-oxazol-2-yl}-propan-1-one] | 27 | 9 | 83 | – |
| CCOC(=O)c1cccc(-c2cnc(C(=O)CCc3ccc(-c4ccccc4)cc3)o2)n1 [Example 22, 6-[2-(3-Biphenyl-4-yl-propionyl)-oxazol-5-yl]-pyridine-2-carboxylic acid ethyl ester] | 3 | 2 | 2 | – |
| COC(=O)c1cccc(-c2cnc(C(=O)CCc3ccc(Oc4ccccc4)cc3)o2)n1 [Example 12, 6-{2-[3-(4-Phenoxy-phenyl)-propionyl]-oxazol-5-yl}-pyridine-2-carboxylic acid methyl ester] | 13 | 5 | 2 | – |
| COC(=O)c1ccc(-c2cnc(C(=O)CCc3ccc(-c4ccccc4)cc3)o2)cn1 [Example 32, 5-[2-(3-Biphenyl-4-yl-propionyl)-oxazol-5-yl]pyridine-2-carboxylic acid methyl ester] | 0.6 | 17 | 500 | – |
| COC(=O)c1ccc(-c2cnc(C(=O)CCc3ccc(Oc4ccccc4)cc3)o2)nc1 [Example 13, 6-{2-[3-(4-Phenoxy-phenyl)-propionyl]-oxazol-5-yl}-nicotinic acid methyl ester] | 54 | 6 | 3 | – |
| Cc1nc(-c2ccccc2)c(-c2ccccc2)n1CCCCCCNC(=O)Oc1ccccc1F [BMS-1] | – | – | – | analgesic effect in Chung spinal nerve ligation model [9]: analgesic effect; analgesic effect in Hargraves test of acute thermal nociception [10]: analgesic effect |
| O=C(CCc1ccc(OCc2ccccc2)cc1)c1nc2ncccc2o1 [Example 11k, 3-(4-(Benzyloxy)phenyl)-1-(oxazolo[4,5-b]pyridin-2-yl)propan-1-one] | 0.38 | – | – | Ki (FAAH [8]): 0.6 nM |
| NC(=O)c1cccc(-c2cnc(C(=O)CCc3ccc(-c4ccccc4)cc3)o2)n1 [Example 26, 6-[2-(3-Biphenyl-4-yl-propionyl)-oxazol-5-yl]-pyridine-2-carboxylic acid amide] | 1.2 | 0.5 | 2 | – |
| O=C(CCc1ccc(COc2ccccc2)cc1)c1ncc(-c2ccccn2)o1 [Example 11e, 3-(4-(Phenoxymethyl)phenyl)-1-(5-(pyridin-2-yl)oxazol-2-yl)propan-1-one] | 1 | – | – | Ki (FAAH [8]): 5 nM |
| CCCCCCCCCCCCCCCCS(=O)(=O)F [AM374] | – | – | – | reduction of spasticity [11]: significantly reduce spasticity |
| O=C(O)c1cccc(-c2cnc(C(=O)CCc3ccc(-c4ccc(CN5CCOCC5)cc4)cc3)o2)n1 [Example 41, 6-{2-[3-(4′-Morpholin-4-ylmethyl-biphenyl-4-yl)-propionyl]-oxazol-5-yl}-pyridine-2-carboxylic acid] | 150 | 3 | 9 | – |

Reference: patent US8372823B2, “Tetracyclic inhibitors of fatty acid amide hydrolase” (The Scripps Research Institute, priority 2007, dated 2013)
